According to patent US20250222108A1, “MEDICAL AGENT INCLUDING ADJUVANT AND COMPOSITE OF PHOTOSENSITIVE MOLECULE AND MOLECULE BINDING TO CANCER-SPECIFIC CELL SURFACE MOLECULE” (KYOTO UNIVERSITY, priority 2021, published 2025):

Test system: KPC-N cells
Experiment: Antitumor effect by TLR3 ligand, pancreatic cancer model
Type: in vivo, C57BL/6 mice
Conditions: 50 μg intratumoral on day 8; N=6
Method: PolyI:C (Poly (I:C) (HMW) VacciGrade™: InvivoGen), which is a TLR3 ligand, was used.
1.5×10^6 KPC-N cells were subcutaneously transplanted to the back of 6- to 8-week-old C57BL/6 mice, and two groups (each group N=6) of non-treatment group (Control) and polyI:C group were established. To the tumor of the mice on day 8 after subcutaneous transplantation was topically injected (intratumoral administration) 50 μg of polyI:C.

polyI:C
antitumor effect (tumor size): no antitumor effect
